Experiment [1] addresses EGFR (D770-N771 ins NPG T790M) kinase (Homo sapiens (Human), UniProt P00533, INS770NPG/T790M). Kind of experiment: In-vitro enzyme experiment 1 (HTRF kinase assay), EGFR D770-N771 ins NPG T790M. It counts as biochemical. As for the experimental part: The specific experiment was as follows: • 1. Preparation of 1× concentration kinase buffer • 1 volume of 5 times concentration of an enzyme buffer diluted with 4 volumes of distilled water; 5 mM magnesium chloride; 1 mM DTT; and 1 mM MnCl2. • 2. Test method of activity of compound • a) a compound diluent was transferred to each well of an assay plate (784075, Greiner) using Echo 550; • b) the assay plate was sealed and centrifuged at 1,000 g for 1 min; • c) 2×EGFR (D770-N771 ins NPG T790M) was prepared in a 1× kinase buffer; • d) 5 μl of the 2×EGFR (D770-N771 ins NPG T790M) was added to a 384-well assay plate (784075, Greiner); • e) the assay plate was centrifuged at 1,000 g for 30 s and incubated at room temperature for 10 min; • f) 2× TK-substrate-biotin (2 μM) and ATP were added to the 1× kinase buffer and mixed; • g) the reaction was started after adding 5 μl of the TK-substrate-biotin (2 μM) and ATP mixture; • h) the assay plate was centrifuged at 1,000 g for 30 s; and the assay plate was sealed and incubated at room temperature for 40 min; • i) 4× Sa-XL 665 was prepared in an HTRF detection buffer; • j) 5 μl of the Sa-XL 665 and 5 μl of a TK-antibody-cryptate were added to each well of the assay plate; • k) the assay plate was centrifuged at 1,000 g for 30 s and incubated at room temperature for 1 h; and • l) fluorescence signals at 615 nm (cryptate) and 665 nm (XL665) were read on an Envision 2104 reader. • 3. Data analysis • 3.1 Calculation of ratio (665/615 nm) of each well • 3.2 Calculation of inhibition rate
[formula] • 3.3 Calculation of IC50 value of compound and drawing dose-effect curve of compound • IC50 values were calculated using GraphPad 6.0 by applying a non-linear regression curve (dose-effect relationship-variable slope) of the logarithm of the compound concentration versus the inhibition rate.
Y=lowest value+(highest value−lowest value)/(1+10^((Log IC50−X)×slope)) • X: logarithm of inhibitor concentration; and Y: inhibition rate. • 3.4 Double test report • 3.4.1 After one tester completed a report, another tester again checked the report to ensure that data analysis was correct. • 3.4.2 The data was exported from the software and manually analyzed. • 3.4.2.1 The rate was converted into the inhibition rate. All the IC50 values were first calculated with the inhibition rate using Prism GraphPad 6.0. • 3.4.2.2 Then the IC50 value was recalculated using the ratio to check the accuracy of the analysis. • 3.4.3 The number of all the compounds was ensured to be correct.
Background: TR-FRET usually uses a lanthanide donor and a delayed reading to cut background.

Experiment [2] deals with EGFR D770-N771 ins NPG kinase (Homo sapiens (Human), UniProt P00533, INS770NPG). The experiment can be described thus: In-vitro enzyme experiment 1 (HTRF kinase assay), D770-N771 ins NPG kinase. It counts as biochemical.
Sequence of EGFR D770-N771 ins NPG kinase (P00533 other isoform, or with tags, fused parts or gaps del 1-668/ins NPG behind 770 limits assumed): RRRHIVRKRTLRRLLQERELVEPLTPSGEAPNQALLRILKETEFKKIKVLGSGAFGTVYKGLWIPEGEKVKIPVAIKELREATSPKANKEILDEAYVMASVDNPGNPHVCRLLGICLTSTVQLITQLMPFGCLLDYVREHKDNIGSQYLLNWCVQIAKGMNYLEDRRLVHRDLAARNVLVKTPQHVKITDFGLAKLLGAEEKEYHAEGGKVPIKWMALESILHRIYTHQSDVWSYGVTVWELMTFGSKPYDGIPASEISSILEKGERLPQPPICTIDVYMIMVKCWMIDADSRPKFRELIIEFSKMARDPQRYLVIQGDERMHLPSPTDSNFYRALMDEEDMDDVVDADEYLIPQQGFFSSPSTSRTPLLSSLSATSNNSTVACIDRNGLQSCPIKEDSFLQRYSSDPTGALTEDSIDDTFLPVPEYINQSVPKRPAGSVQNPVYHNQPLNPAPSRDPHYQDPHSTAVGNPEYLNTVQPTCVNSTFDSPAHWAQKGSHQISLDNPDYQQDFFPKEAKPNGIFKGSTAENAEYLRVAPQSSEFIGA
Experiment [3] concerns KC-1362 BaF3-EGFR D770-N771 ins NPG cells. Kind of experiment: Anti-proliferative activity on KC-1362 BaF3-EGFR D770-N771 ins NPG cells. It counts as cell-based. To be noted: Ba/F3 EGFR.
Experiment [4] has as its system KC-1474:PC-9 EGFR-Del19/T790M/C797S. The experiment can be described thus: Cell proliferation inhibition experiment (CCK-8), KC-1474. It counts as cell-based. The note with it: Homo sapiens, 72 h. The source says:
(§1) Inhibition rate %=[(A0−AS)/(A0−AC)]×100%.

Experiment [5] has as its system KC-0178:NCI-1975 EGFR-L858R/T790M/C797S. The experiment can be described thus: Cell proliferation inhibition experiment (CCK-8), KC-0178. To be noted: Homo sapiens, 72 h. It counts as cell-based.
Excerpt: as §1

Sequence of EGFR (D770-N771 ins NPG T790M) kinase (P00533 other isoform, or with tags, fused parts or gaps T790M/del 1-668/ins NPG behind 770 limits assumed): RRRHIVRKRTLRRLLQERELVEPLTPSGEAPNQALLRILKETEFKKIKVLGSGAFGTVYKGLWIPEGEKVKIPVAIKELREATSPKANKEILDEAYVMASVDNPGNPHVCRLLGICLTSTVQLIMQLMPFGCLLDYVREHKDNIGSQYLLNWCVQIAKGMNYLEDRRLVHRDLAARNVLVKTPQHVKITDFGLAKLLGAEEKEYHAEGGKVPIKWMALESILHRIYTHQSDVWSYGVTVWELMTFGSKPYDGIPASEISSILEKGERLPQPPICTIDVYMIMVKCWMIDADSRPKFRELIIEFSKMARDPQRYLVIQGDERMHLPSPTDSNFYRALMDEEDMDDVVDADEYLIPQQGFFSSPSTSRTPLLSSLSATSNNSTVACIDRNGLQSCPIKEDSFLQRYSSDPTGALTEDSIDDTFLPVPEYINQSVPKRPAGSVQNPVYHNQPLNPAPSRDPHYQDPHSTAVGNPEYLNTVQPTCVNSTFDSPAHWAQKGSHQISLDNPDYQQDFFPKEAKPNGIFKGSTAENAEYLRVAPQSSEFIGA

Turning to `CN1CCN(c2ccc(Nc3nc(N[C@H]4CC[C@@H](CO)CC4)c4c(C(=O)c5ccc(F)cc5)c[nH]c4n3)cc2)CC1` [Example 60], the half-maximal inhibitory concentration (IC50) – broadly, the concentration that inhibits the measured activity by half – is 8.8 nM in experiment [1]; 2.82 nM in experiment [2]; 70 nM in experiment [3]; below 0.1 µM in experiment [4]; 1 to 2 µM in experiment [5].

These data come from US20250122202A1, “EGFR INHIBITOR, PREPARATION METHOD THEREFOR AND USE THEREOF” (SHANDONG NEW TIME PHARMACEUTICAL CO., LTD., priority 2021, published 2025).
